Assay results as given in patent US20260078341A1, “TREATMENT OF CANCER USING CHIMERIC ANTIGEN RECEPTOR” (Novartis AG, priority 2014, published 2026).
Values joined by “and” are separate entries in the source; they are usually repeats but may differ in a detail not shown here. Identical values can stand only once. Like-named read-outs stand apart in the source and are kept apart here.

Legend:
[1] = test system: influenza vaccine strains and heterologous influenza strains; test: Influenza geometric mean titers 4 weeks after vaccination in RAD001 cohorts; format: in vivo, human; conditions: relative to placebo
Source text: FIGS. 41A and 41B. […] In FIG. 41A, the increase above baseline in influenza geometric mean titers to each of the 3 influenza vaccine strains (H1N1 A/California/07/2009, H3N2 A/Victoria/210/2009, B/Brisbane/60/2008) relative to the increase in the placebo cohort 4 weeks after vaccination is shown for each of the RAD001 dosing cohorts in the intention to treat population. […] FIG. 41B is a graph of the same data as in FIG. 41A for the subset of subjects with baseline influenza titers <=1:40.
The increase above baseline in influenza geometric mean titers to 2 heterologous influenza strains (A/H1N1 strain A/New Jersey/8/76 and A/H3N2 strain A/Victoria/361/11) not contained in the influenza vaccine relative to the increase in the placebo cohort 4 weeks after vaccination is shown for each of the RAD001 dosing cohorts in the intention to treat population. * indicates increase in titer relative to placebo exceeds 1 with a posterior probability of at least 80%.

[2] = Exercise and energy in elderly subjects; format: in vivo, human
[3] = test system: PD-1 positive CD4 and CD8 T cells; format: in vivo, human
[4] = for Treatment-related AE: Blood cholesterol increased / Treatment-related AE: Conjunctivitis / Treatment-related AE: Diarrhea / Treatment-related AE: Dry mouth / Treatment-related AE: Dyspepsia / Treatment-related AE: Erythema / Treatment-related AE: Fatigue / Treatment-related AE: Headache / Treatment-related AE: Insomnia / Treatment-related AE: Limb discomfort / Treatment-related AE: Low density lipoprotein increased / Treatment-related AE: Mouth ulceration / Treatment-related AE: Mucosal inflammation / Treatment-related AE: Neutropenia / Treatment-related AE: Oral pain / Treatment-related AE: Paresthesia oral / Treatment-related AE: Pruritus / Treatment-related AE: Stomatitis / Treatment-related AE: Thrombocytopenia / Treatment-related AE: Tongue ulceration / Treatment-related AE: Urinary tract infection / Treatment-related AEs: Patients with AE(s) / Treatment-related AEs: Total AE(s): N = 53

CO[C@H]1C[C@@H]2CC[C@@H](C)[C@@](O)(O2)C(=O)C(=O)N2CCCC[C@H]2C(=O)O[C@H]([C@H](C)C[C@@H]2CC[C@@H](OCCO)[C@H](OC)C2)CC(=O)[C@H](C)/C=C(\C)[C@@H](O)[C@@H](OC)C(=O)[C@H](C)C[C@H](C)/C=C/C=C/C=C/1C [RAD001, (1R,9S,12S,15R,16E,18R,19R,21R,23S,24E,26E,28E,30S,32S,35R)-1,18-dihydroxy-12-{(1R)-2-[(1S,3R,4R)-4-(2-hydroxyethoxy)-3-methoxycyclohexyl]-1-methylethyl}-19,30-dimethoxy-15,17,21,23,29,35-hexamethyl-11,36-dioxa-4-azatricyclo[30.3.1.0^4,9]hexatriaconta-16,24,26,28-tetraene-2,3,10,14,20-pentaone]
titers to heterologous influenza strains [1]: increase in titers to heterologous influenza strains as compared to placebo | titers to influenza vaccine strains [1]: increase in titers to influenza vaccine strains as compared to placebo | exercise and energy [2]: increases in exercise and energy | decrease in PD-1 positive CD8 T cells compared to placebo cohort ([3]; in vivo): 37.4% and 41.4% | decrease in PD-1 positive CD4 T cells compared to placebo cohort ([3]; week 6, pooled RAD cohort (n=84), p=0.03): 30.2% | decrease in PD-1 positive CD4 T cells compared to placebo cohort ([3]; week 12, pooled RAD cohort, p=0.05): 32.7% | Treatment-related AE: Blood cholesterol increased ([4]; RAD001 0.5 mg daily): 2 (3.8%) n (%) | Treatment-related AE: Conjunctivitis ([4]; RAD001 0.5 mg daily): 0 n (%) | Treatment-related AE: Diarrhea ([4]; RAD001 0.5 mg daily): 1 (1.9%) n (%) | Treatment-related AE: Dry mouth ([4]; RAD001 0.5 mg daily): 0 n (%) | Treatment-related AE: Dyspepsia ([4]; RAD001 0.5 mg daily): 0 n (%) | Treatment-related AE: Erythema ([4]; RAD001 0.5 mg daily): 0 n (%) | Treatment-related AE: Fatigue ([4]; RAD001 0.5 mg daily): 0 n (%) | Treatment-related AE: Headache ([4]; RAD001 0.5 mg daily): 0 n (%) | Treatment-related AE: Insomnia ([4]; RAD001 0.5 mg daily): 1 (1.9%) n (%) | Treatment-related AE: Limb discomfort ([4]; RAD001 0.5 mg daily): 0 n (%) | Treatment-related AE: Low density lipoprotein increased ([4]; RAD001 0.5 mg daily): 2 (3.8%) n (%) | Treatment-related AE: Mouth ulceration ([4]; RAD001 0.5 mg daily): 6 (11.3%) n (%) | Treatment-related AE: Mucosal inflammation ([4]; RAD001 0.5 mg daily): 0 n (%) | Treatment-related AE: Neutropenia ([4]; RAD001 0.5 mg daily): 0 n (%) | Treatment-related AE: Oral pain ([4]; RAD001 0.5 mg daily): 0 n (%) | Treatment-related AE: Paresthesia oral ([4]; RAD001 0.5 mg daily): 2 (3.8%) n (%) | Treatment-related AE: Pruritus ([4]; RAD001 0.5 mg daily): 0 n (%) | Treatment-related AE: Stomatitis ([4]; RAD001 0.5 mg daily): 0 n (%) | Treatment-related AE: Thrombocytopenia ([4]; RAD001 0.5 mg daily): 0 n (%) | Treatment-related AE: Tongue ulceration ([4]; RAD001 0.5 mg daily): 3 (5.7%) n (%) | Treatment-related AE: Urinary tract infection ([4]; RAD001 0.5 mg daily): 0 n (%) | Treatment-related AEs: Patients with AE(s) ([4]; RAD001 0.5 mg daily): 22 (41.5%) n (%) | Treatment-related AEs: Total AE(s) ([4]; RAD001 0.5 mg daily): 35 n (%) | Treatment-related AE: Blood cholesterol increased ([4]; RAD001 5 mg weekly): 2 (3.8%) n (%) | Treatment-related AE: Conjunctivitis ([4]; RAD001 5 mg weekly): 2 (3.8%) n (%) | Treatment-related AE: Diarrhea ([4]; RAD001 5 mg weekly): 4 (7.5%) n (%) | Treatment-related AE: Dry mouth ([4]; RAD001 5 mg weekly): 0 n (%) | Treatment-related AE: Dyspepsia ([4]; RAD001 5 mg weekly): 3 (5.7%) n (%) | Treatment-related AE: Erythema ([4]; RAD001 5 mg weekly): 2 (3.8%) n (%) | Treatment-related AE: Fatigue ([4]; RAD001 5 mg weekly): 2 (3.8%) n (%) | Treatment-related AE: Headache ([4]; RAD001 5 mg weekly): 2 (3.8%) n (%) | Treatment-related AE: Insomnia ([4]; RAD001 5 mg weekly): 2 (3.8%) n (%) | Treatment-related AE: Limb discomfort ([4]; RAD001 5 mg weekly): 2 (3.8%) n (%) | Treatment-related AE: Low density lipoprotein increased ([4]; RAD001 5 mg weekly): 1 (1.9%) n (%) | Treatment-related AE: Mouth ulceration ([4]; RAD001 5 mg weekly): 2 (3.8%) n (%) | Treatment-related AE: Mucosal inflammation ([4]; RAD001 5 mg weekly): 0 n (%) | Treatment-related AE: Neutropenia ([4]; RAD001 5 mg weekly): 0 n (%) | Treatment-related AE: Oral pain ([4]; RAD001 5 mg weekly): 2 (3.8%) n (%) | Treatment-related AE: Paresthesia oral ([4]; RAD001 5 mg weekly): 0 n (%) | Treatment-related AE: Pruritus ([4]; RAD001 5 mg weekly): 2 (3.8%) n (%) | Treatment-related AE: Stomatitis ([4]; RAD001 5 mg weekly): 0 n (%) | Treatment-related AE: Thrombocytopenia ([4]; RAD001 5 mg weekly): 0 n (%) | Treatment-related AE: Tongue ulceration ([4]; RAD001 5 mg weekly): 1 (1.9%) n (%) | Treatment-related AE: Urinary tract infection ([4]; RAD001 5 mg weekly): 0 n (%) | Treatment-related AEs: Patients with AE(s) ([4]; RAD001 5 mg weekly): 20 (37.7%) n (%) | Treatment-related AEs: Total AE(s) ([4]; RAD001 5 mg weekly): 46 n (%) | Treatment-related AE: Blood cholesterol increased ([4]; RAD001 20 mg weekly): 2 (3.8%) n (%) | Treatment-related AE: Conjunctivitis ([4]; RAD001 20 mg weekly): 0 n (%) | Treatment-related AE: Diarrhea ([4]; RAD001 20 mg weekly): 1 (1.9%) n (%) | Treatment-related AE: Dry mouth ([4]; RAD001 20 mg weekly): 2 (3.8%) n (%) | Treatment-related AE: Dyspepsia ([4]; RAD001 20 mg weekly): 2 (3.8%) n (%) | Treatment-related AE: Erythema ([4]; RAD001 20 mg weekly): 0 n (%) | Treatment-related AE: Fatigue ([4]; RAD001 20 mg weekly): 4 (7.5%) n (%) | Treatment-related AE: Headache ([4]; RAD001 20 mg weekly): 9 (17.0%) n (%) | Treatment-related AE: Insomnia ([4]; RAD001 20 mg weekly): 1 (1.9%) n (%) | Treatment-related AE: Limb discomfort ([4]; RAD001 20 mg weekly): 0 n (%) | Treatment-related AE: Low density lipoprotein increased ([4]; RAD001 20 mg weekly): 2 (3.8%) n (%) | Treatment-related AE: Mouth ulceration ([4]; RAD001 20 mg weekly): 9 (17.0%) n (%) | Treatment-related AE: Mucosal inflammation ([4]; RAD001 20 mg weekly): 2 (3.8%) n (%) | Treatment-related AE: Neutropenia ([4]; RAD001 20 mg weekly): 3 (5.7%) n (%) | Treatment-related AE: Oral pain ([4]; RAD001 20 mg weekly): 1 (1.9%) n (%) | Treatment-related AE: Paresthesia oral ([4]; RAD001 20 mg weekly): 0 n (%) | Treatment-related AE: Pruritus ([4]; RAD001 20 mg weekly): 1 (1.9%) n (%) | Treatment-related AE: Stomatitis ([4]; RAD001 20 mg weekly): 2 (3.8%) n (%) | Treatment-related AE: Thrombocytopenia ([4]; RAD001 20 mg weekly): 2 (3.8%) n (%) | Treatment-related AE: Tongue ulceration ([4]; RAD001 20 mg weekly): 0 n (%) | Treatment-related AE: Urinary tract infection ([4]; RAD001 20 mg weekly): 2 (3.8%) n (%) | Treatment-related AEs: Patients with AE(s) ([4]; RAD001 20 mg weekly): 27 (50.9%) n (%) | Treatment-related AEs: Total AE(s) ([4]; RAD001 20 mg weekly): 109 n (%) | tolerability ([4]; elderly volunteers, 6 weeks, particularly 0.5 mg daily and 5 mg weekly): well tolerated | average RAD001 trough level (0.5 mg daily dosing cohort): 0.9 ng/mL | average RAD001 trough level (20 mg weekly dosing cohort): 0.7 ng/mL | trough level of the study regimens relative to oncology and transplant regimens, fold lower (dosing regimens used in the immunization study): 3-20 fold
